Consider 14 compounds from PubChem BioAssay AID182 (DTP/NCI, 2004).

Where “and” joins values, the source holds several entries; their conditions need not be identical. Identical values can stand only once. Inconclusive results and toxic doses are left out. Starred links: 1 amine or outer side, 2 acyl side, 3 side chain; linkers in the order of their positions; H or OH if unused. Positions of bridges follow the written chain, without caps; N, C: chain ends. Non-standard residues stand in square brackets, D forms with d. Residues, ends and D or L forms follow the SMILES beside them. Chains are numbered I, II in the order given. Actinocin(9to1) = Cc1c2oc3c(C)ccc(C(=O)[*:1])c3nc-2c(C(=O)[*:2])c(N)c1=O; NMeV = CN[CH](C(=O)O)C(C)C; Aze = O=C(O)[CH]1CCN1; Sar = CNCC(=O)O

This assay concerns BDF1 mice, P388/ADR leukemia ip, median survival T/C. Kind of assay: NCI In Vivo Anticancer Drug Screen. Data for tumor model P388 Leukemia resistant to Adriamycin; NSC 123127, Developed at Scr 06 and 41 (intraperitoneal) in B6D2F1 (BDF1) mice. The settings on record: endpoint: median survival time, higher = longer survival. The method, then:
The antitumor activity of compounds was measured in mice bearing transplantable tumors. Survival or tumor size were measured and the results are expressed as the measurement made in the treated group (T) divided by the measurement made in the vehicle treated control group (C). The tumor model used in this assay is P388 Leukemia resistant to Adriamycin; NSC 123127, Developed at Scr 06 and 41 (intraperitoneal) in B6D2F1 (BDF1) mice

The mark [1] stands for this setting: dose: 1.73 mg/kg/injection, schedule: Q04DX003 (ip), vehicle: water.
Setting [2] is: dose: 2.16 mg/kg/injection, schedule: Q04DX003 (ip), vehicle: saline.
The mark [3] stands for this setting: dose: 2.88 mg/kg/injection, schedule: Q04DX003 (ip), vehicle: water.
[4] abbreviates: dose: 4.8 mg/kg/injection, schedule: Q04DX003 (ip), vehicle: water.

As to `Cc1c2oc3c(C)ccc(C(=O)NC4C(=O)NC(C(C)C)C(=O)N5CCC5C(=O)N(C)CC(=O)N(C)C(C(C)C)C(=O)OC4C)c3nc-2c(C(=O)NC2C(=O)NC(C(C)C)C(=O)N3CCC3C(=O)N(C)CC(=O)N(C)C(C(C)C)C(=O)OC2C)c(N)c1=O` (stereo not drawn) (I: TV[Aze][Sar][NMeV] / II: TV[Aze][Sar][NMeV]; ester I:1-I:C, II:1-II:C; linker I:N-II:N via Actinocin(9to1); configuration not given here), the T/C (dose: 216.0 micrograms/kg/injection, schedule: Q01DX003 (ip), vehicle: saline + alcohol) is 110 % of control; the T/C (dose: 360.0 micrograms/kg/injection, schedule: Q01DX003 (ip), vehicle: saline + alcohol) was 103 % of control; the T/C (dose: 600.0 micrograms/kg/injection, schedule: Q01DX003 (ip), vehicle: saline + alcohol) was 104 % of control; the T/C (dose: 1000.0 micrograms/kg/injection, schedule: Q01DX003 (ip), vehicle: saline + alcohol) is 86 % of control.

With `O=c1[nH]cc(F)c(=O)[nH]1`, the T/C (dose: 21.6 mg/kg/injection, schedule: Q04DX003 (ip), vehicle: saline) is 150 % of control; the T/C (dose: 36.0 mg/kg/injection, schedule: Q04DX003 (ip), vehicle: saline) was 174 % of control; the T/C (dose: 60.0 mg/kg/injection, schedule: Q04DX003 (ip), vehicle: saline) is 192 % of control.

Regarding `O=C[C@@H](CO)O[C@H](C=O)n1cnc2c(=O)[nH]cnc21`, the T/C was 162 % of control (dose: 180.0 mg/kg/injection, schedule: Q04DX003 (ip), vehicle: water) and 203 % of control (dose: 300.0 mg/kg/injection, schedule: Q04DX003 (ip), vehicle: water).

Take `CC(=O)[C@]1(O)Cc2c(O)c3c(c(O)c2[C@@H](OC2CC(N)C(O)C(C)O2)C1)C(=O)c1c(O)cccc1C3=O` (stereo partly drawn): the T/C is 108 % of control (dose: 0.32 mg/kg/injection, schedule: Q04DX003 (ip), vehicle: water); 118 % of control (dose: 0.39 mg/kg/injection, schedule: Q04DX003 (ip), vehicle: water); 88 % of control (dose: 0.54 mg/kg/injection, schedule: Q04DX003 (ip), vehicle: water); 123 % of control (dose: 0.65 mg/kg/injection, schedule: Q04DX003 (ip), vehicle: water).

In the case of `COC1=C(N)C(=O)c2nc(-c3nc(C(=O)O)c(C)c(-c4ccc(OC)c(OC)c4O)c3N)ccc2C1=O`, the T/C (dose: 144.0 micrograms/kg/injection, schedule: Q04DX003 (ip), vehicle: alkali diluted with saline) was 120 % of control; the T/C (dose: 240.0 micrograms/kg/injection, schedule: Q04DX003 (ip), vehicle: alkali diluted with saline) is 120 % of control; the T/C (dose: 400.0 micrograms/kg/injection, schedule: Q04DX003 (ip), vehicle: alkali diluted with saline) was 122 % of control; the T/C (dose: 667.0 micrograms/kg/injection, schedule: Q04DX003 (ip), vehicle: alkali diluted with saline) was 121 % of control.

For `COc1cccc2c1C(=O)c1c(O)c3c(c(O)c1C2=O)C[C@@](O)(C(=O)CO)C[C@@H]3OC1CC(N)C(O)C(C)O1` (stereo partly drawn), the T/C by setting is: (dose: 0.65 mg/kg/injection, schedule: Q01DX009 (ip), vehicle: saline) 107 % of control; (dose: 1.08 mg/kg/injection, schedule: Q01DX009 (ip), vehicle: saline) 109 % of control; (dose: 1.3 mg/kg/injection, schedule: Q04DX003 (ip), vehicle: saline) 112 % of control; (dose: 1.3 mg/kg/injection, schedule: Q04DX003 (ip), vehicle: water) 102 % of control and 115 % of control; (dose: 1.5 mg/kg/injection, schedule: Q04DX003 (ip), vehicle: water) 100 % of control; under setting [1], 116 % of control. For the same compound, the T/C reads like this: (dose: 1.8 mg/kg/injection, schedule: Q01DX009 (ip), vehicle: saline) 110 % of control; under setting [2], 109 % of control; (dose: 2.16 mg/kg/injection, schedule: Q04DX003 (ip), vehicle: water) 99 % of control and 120 % of control and 102 % of control; under setting [3], 124 % of control; (dose: 3.0 mg/kg/injection, schedule: Q01DX009 (ip), vehicle: saline) 96 % of control; (dose: 3.0 mg/kg/injection, schedule: Q04DX003 (ip), vehicle: water) 100 % of control. Further, the T/C reads like this: (dose: 3.6 mg/kg/injection, schedule: Q04DX003 (ip), vehicle: saline) 120 % of control; (dose: 3.6 mg/kg/injection, schedule: Q04DX003 (ip), vehicle: water) 115 % of control and 122 % of control and 100 % of control; under setting [4], 103 % of control; (dose: 6.0 mg/kg/injection, schedule: Q04DX003 (ip), vehicle: water) 99 % of control [middle of 4 runs]; (dose: 10.0 mg/kg/injection, schedule: Q04DX003 (ip), vehicle: water) 98 % of control; (dose: 66.7 mg/kg/injection, schedule: Q04DX003 (ip), vehicle: water) 96 % of control.

Turning to `O=C1N[C@@H]([C@H]2CC[C@H](Cl)CN2)C(=O)N[C@H]1[C@H]1CC[C@H](Cl)CN1`, the T/C was 158 % of control (dose: 1.44 mg/kg/injection, schedule: Q04DX003 (ip), vehicle: water); 213 % of control (dose: 2.4 mg/kg/injection, schedule: Q04DX003 (ip), vehicle: water); 221 % of control (dose: 4.0 mg/kg/injection, schedule: Q04DX003 (ip), vehicle: water); 122 % of control (dose: 6.67 mg/kg/injection, schedule: Q04DX003 (ip), vehicle: water).

With `COc1ccc(CC2C(=O)NC(C)C(=O)N(C)C3Cc4ccc(cc4)Oc4cc(ccc4O)CC(C(=O)NC(C)C(=O)NC(C)C(=O)N2C)N(C)C3=O)cc1` (stereo not drawn), the T/C reads like this: (dose: 4.32 mg/kg/injection, schedule: Q04DX003 (ip), vehicle: other) 109 % of control; (dose: 7.2 mg/kg/injection, schedule: Q04DX003 (ip), vehicle: other) 94 % of control; (dose: 12.0 mg/kg/injection, schedule: Q04DX003 (ip), vehicle: other) 88 % of control.

Consider `COc1cc(O)c2c(c1)C(=O)c1cc3c(c(O)c1C2=O)C(OC1OC(C)C(O)C(O)C1OC)C(OC)C(C)(O)C3=O` (stereo not drawn), for which the T/C by setting is: (dose: 25.9 mg/kg/injection, schedule: Q01DX009 (ip), vehicle: Klucel (hydroxypropylcellulose) (HPC)) 96 % of control; (dose: 43.2 mg/kg/injection, schedule: Q01DX009 (ip), vehicle: Klucel (hydroxypropylcellulose) (HPC)) 96 % of control; (dose: 72.0 mg/kg/injection, schedule: Q01DX009 (ip), vehicle: Klucel (hydroxypropylcellulose) (HPC)) 99 % of control; (dose: 108.0 mg/kg/injection, schedule: Q04DX003 (ip), vehicle: Klucel (hydroxypropylcellulose) (HPC)) 100 % of control; (dose: 120.0 mg/kg/injection, schedule: Q01DX009 (ip), vehicle: Klucel (hydroxypropylcellulose) (HPC)) 103 % of control; (dose: 180.0 mg/kg/injection, schedule: Q04DX003 (ip), vehicle: Klucel (hydroxypropylcellulose) (HPC)) 105 % of control.

Take `CC1CC(C)(O)CC(C(O)CC2CC(=O)NC(=O)C2)C1=O` (stereo not drawn): the T/C was 120 % of control (dose: 0.72 mg/kg/injection, schedule: Q04DX003 (ip), vehicle: saline); 124 % of control (dose: 0.78 mg/kg/injection, schedule: Q04DX003 (ip), vehicle: saline); 91 % of control under setting [2]; 103 % of control (dose: 173.0 micrograms/kg/injection, schedule: Q01DX009 (ip), vehicle: saline); 112 % of control (dose: 288.0 micrograms/kg/injection, schedule: Q01DX009 (ip), vehicle: saline); 92 % of control (dose: 480.0 micrograms/kg/injection, schedule: Q01DX009 (ip), vehicle: saline).

Take `CCC1(O)CC(OC2CC(N(C)C)C(OC3CC(O)C(OC4CCC(=O)C(C)O4)C(C)O3)C(C)O2)c2c(cc3c(c2O)C(=O)c2c(O)ccc(O)c2C3=O)C1C(=O)OC` (stereo not drawn): the T/C was 105 % of control under setting [1], 107 % of control under setting [3] and 119 % of control under setting [4].

Take `CC1OC(O[C@H]2/C=C/C=C/C=C/C=C/C=C/C=C/C=C/[C@H](C)[C@@H](O)[C@@H](C)[C@H](C)OC(=O)C[C@H](O)C[C@H](O)CC[C@@H](O)[C@H](O)C[C@H](O)C[C@]3(O)C[C@H](O)[C@@H](C(=O)O)[C@H](C2)O3)C(O)C(N)C1O` (stereo partly drawn): the T/C (dose: 20.0 mg/kg/injection, schedule: Q04DX003 (ip), vehicle: clinical formulation) was 93 % of control.

As for `COc1cc2cc3c4cc(OC)c(OC)cc4cc[n+]3c(C)c2cc1OC` (tested in a mixture with another compound), the T/C runs as follows: (dose: 86.4 mg/kg/injection, schedule: Q04DX003 (ip), vehicle: other) 103 % of control; (dose: 144.0 mg/kg/injection, schedule: Q04DX003 (ip), vehicle: other) 95 % of control.

As to `Cc1c2ccncc2c(C)c2c1[nH]c1ccccc12`, the T/C (dose: 13.0 mg/kg/injection, schedule: Q04DX003 (ip), vehicle: water) is 112 % of control; the T/C (dose: 21.6 mg/kg/injection, schedule: Q04DX003 (ip), vehicle: water) is 104 % of control and 109 % of control; the T/C (dose: 36.0 mg/kg/injection, schedule: Q04DX003 (ip), vehicle: water) was 110 % of control and 117 % of control.
